From patent US9260425B2 (Genetech, Inc., priority 2011, dated 2016)

The molecules below were run against Pim-1 (Homo sapiens (Human), UniProt P11309) (assay: Pim kinase binding activity assay (Example 901), PIM-1 enzyme, Caliper microfluidic peptide phosphorylation). Settings: 20 pM PIM-1, 10 μM ATP, 1 μM FAM-peptide, 90 minutes at room temperature.
Type: biochemical
Summary of the method: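 PIM-1 at 20 pM phosphorylated 1 μM FAM-labelled Pim peptide with 10 μM ATP in HEPES pH 7.2, MgCl2, Tween 20 and DTT for 90 min at room temperature. EDTA stopped the reaction, and product and substrate were resolved by microfluidic electrophoresis (ex 488/em 530 nm). Ki was derived from substrate conversion.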

Chain of Pim-1 (P11309 whole entry): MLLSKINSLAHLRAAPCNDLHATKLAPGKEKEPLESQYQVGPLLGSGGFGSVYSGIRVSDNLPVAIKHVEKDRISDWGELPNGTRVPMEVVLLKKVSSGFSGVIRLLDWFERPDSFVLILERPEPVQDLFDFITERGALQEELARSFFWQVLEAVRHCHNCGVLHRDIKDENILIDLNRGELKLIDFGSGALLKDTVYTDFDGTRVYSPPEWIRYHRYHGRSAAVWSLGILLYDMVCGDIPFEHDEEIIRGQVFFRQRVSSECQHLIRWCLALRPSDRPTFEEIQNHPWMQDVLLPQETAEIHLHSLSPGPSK

Compound | Ki [nM]
OC1CN(c2cccc(-c3n[nH]c4cnc(-c5cccnc5)cc34)n2)CCC1F (centres unmarked) [Example 435, 4-fluoro-1-(6-(5-(pyridin-3-yl)-1H-pyrazolo[3,4-c]pyridin-3-yl)pyridin-2-yl)piperidin-3-ol] | 0.089
CNc1cccc(-c2n[nH]c3cnc(-c4cccnc4)cc23)n1 [Example 437, N-methyl-6-(5-(pyridin-3-yl)-1H-pyrazolo[3,4-c]pyridin-3-yl)pyridin-2-amine] | 0.409
Cn1cc(-c2cc3c(-c4ccnc(C5CCNCC5)n4)n[nH]c3cn2)cn1 [Example 439, 5-(1-methyl-1H-pyrazol-4-yl)-3-(2-(piperidin-4-yl)pyrimidin-4-yl)-1H-pyrazolo[3,4-c]pyridine] | 0.571
Cc1ccc(-c2n[nH]c3cnc(-c4cnn(C)c4)cc23)nc1N1CCC[C@H](O)C1 [Example 441, (S)-1-(3-methyl-6-(5-(1-methyl-1H-pyrazol-4-yl)-1H-pyrazolo[3,4-c]pyridin-3-yl)pyridin-2-yl)piperidin-3-ol] | 0.062
CCn1cc(-c2cc3c(-c4ccc(C)c(N5CCC[C@@H](N)C5)n4)n[nH]c3cn2)cn1 [Example 443, (R)-1-(6-(5-(1-ethyl-1H-pyrazol-4-yl)-1H-pyrazolo[3,4-c]pyridin-3-yl)-3-methylpyridin-2-yl)piperidin-3-amine] | 0.1
CCn1cc(-c2cc3c(-c4cccc(N5CCC[C@H](N)C5)n4)n[nH]c3cn2)cn1 [Example 445, (S)-1-(6-(5-(1-ethyl-1H-pyrazol-4-yl)-1H-pyrazolo[3,4-c]pyridin-3-yl)pyridin-2-yl)piperidin-3-amine] | 0.031
CC(C)(C)n1cc(-c2cc3c(-c4cccc(N5CCNCC5)n4)n[nH]c3cn2)cn1 [Example 448, 5-(1-tert-butyl-1H-pyrazol-4-yl)-3-(6-(piperazin-1-yl)pyridin-2-yl)-1H-pyrazolo[3,4-c]pyridine] | 0.376
Cn1cc(-c2cc3c(-c4ccc(Br)c(N5CCOCC5)n4)n[nH]c3cn2)cn1 [Example 449, 4-(3-bromo-6-(5-(1-methyl-1H-pyrazol-4-yl)-1H-pyrazolo[3,4-c]pyridin-3-yl)pyridin-2-yl)morpholine] | 0.191
CCn1cc(-c2cc3c(-c4cc(C)cc(N5CCCNCC5)n4)n[nH]c3cn2)cn1 [Example 457, 3-(6-(1,4-diazepan-1-yl)-4-methylpyridin-2-yl)-5-(1-ethyl-1H-pyrazol-4-yl)-1H-pyrazolo[3,4-c]pyridine] | 0.049
CCn1cc(-c2cc3c(-c4cccc(N5CCC[C@@](C)(O)C5)n4)n[nH]c3cn2)cn1 [Example 460, (R)-1-(6-(5-(1-ethyl-1H-pyrazol-4-yl)-1H-pyrazolo[3,4-c]pyridin-3-yl)pyridin-2-yl)-3-methylpiperidin-3-ol] | 0.265
CCn1cc(-c2cc3c(-c4cccc(NC5CCCC(N)C5)n4)n[nH]c3cn2)cn1 (centres unmarked) [Example 461, N1-(6-(5-(1-ethyl-1H-pyrazol-4-yl)-1H-pyrazolo[3,4-c]pyridin-3-yl)pyridin-2-yl)cyclohexane-1,3-diamine] | 0.0593
CCn1cc(-c2cc3c(-c4cccc(N5CCNC(CO)C5)n4)n[nH]c3cn2)cn1 (centres unmarked) [Example 463, (4-(6-(5-(1-ethyl-1H-pyrazol-4-yl)-1H-pyrazolo[3,4-c]pyridin-3-yl)pyridin-2-yl)piperazin-2-yl)methanol] | 0.084
CCn1cc(-c2cc3c(-c4cccc(N5CCC[C@](C)(O)C5)n4)n[nH]c3cn2)cn1 [Example 464, (S)-1-(6-(5-(1-ethyl-1H-pyrazol-4-yl)-1H-pyrazolo[3,4-c]pyridin-3-yl)pyridine-2-yl)-3-methylpiperidin-3-ol] | 0.0721
CCn1cc(-c2cc3c(-c4nc(N5CCC[C@H](N)C5)ccc4Cl)n[nH]c3cn2)cn1 [Example 466, (S)-1-(5-chloro-6-(5-(1-ethyl-1H-pyrazol-4-yl)-1H-pyrazolo[3,4-c]pyridin-3-yl)pyridin-2-yl)piperidin-3-amine] | 0.389
FC(F)(F)c1cncc(-c2cc3c(-c4cccc(N5CCNCC5)n4)n[nH]c3cn2)c1 [Example 467, 3-(6-(piperazin-1-yl)pyridin-2-yl)-5-(5-(trifluoromethyl)pyridin-3-yl)-1H-pyrazolo[3,4-c]pyridine] | 0.093
CCn1cc(-c2cc3c(-c4cccc(N5CCNC(C(F)(F)F)C5)n4)n[nH]c3cn2)cn1 (centres unmarked) [Example 468, 5-(1-ethyl-1H-pyrazol-4-yl)-3-(6-(3-(trifluoromethyl)piperazin-1-yl)pyridin-2-yl)-1H-pyrazolo[3,4-c]pyridine] | 0.06
CCn1cc(-c2cc3c(-c4cc(C(F)(F)F)ccn4)n[nH]c3cn2)cn1 [Example 469, 5-(1-ethyl-1H-pyrazol-4-yl)-3-(4-(trifluoromethyl)pyridin-2-yl)-1H-pyrazolo[3,4-c]pyridine] | 65.6
CS(=O)(=O)c1cncc(-c2cc3c(-c4cccc(N5CCNCC5)n4)n[nH]c3cn2)c1 [Example 470, 5-(5-(methylsulfonyl)pyridin-3-yl)-3-(6-(piperazin-1-yl)pyridin-2-yl)-1H-pyrazolo[3,4-c]pyridine] | 0.049
CCn1cc(-c2cc3c(-c4cccc(N5CCC[C@@H](N)CC5)n4)n[nH]c3cn2)cn1 [Example 471, (R)-1-(6-(5-(1-ethyl-1H-pyrazol-4-yl)-1H-pyrazolo[3,4-c]pyridin-3-yl)pyridin-2-yl)azepan-4-amine] | 0.073
CCn1cc(-c2cc3c(-c4cccc(N5CCN(C(C)=O)CC5)n4)n[nH]c3cn2)cn1 [Example 472, 1-(4-(6-(5-(1-ethyl-1H-pyrazol-4-yl)-1H-pyrazolo[3,4-c]pyridin-3-yl)pyridin-2-yl)piperazin-1-yl)ethanone] | 0.107
CCn1cc(-c2cc3c(-c4ccc(=O)n(CC5(C(N)=O)CCC5)c4)n[nH]c3cn2)cn1 [Example 475, 1-((5-(5-(1-ethyl-1H-pyrazol-4-yl)-1H-pyrazolo[3,4-c]pyridin-3-yl)-2-oxopyridin-1(2H)-yl)methyl) cyclobutanecarboxamidc] | 4.49
CCn1cc(-c2cc3c(-c4cc(OC)ccn4)n[nH]c3cn2)cn1 [Example 476, 5-(1-ethyl-1H-pyrazol-4-yl)-3-(4-methoxypyridin-2-yl)-1H-pyrazolo[3,4-c]pyridine] | 15.7
CCn1cc(-c2cc3c(-c4cncc(N5CCNCC5)n4)n[nH]c3cn2)cn1 [Example 479, 5-(1-ethyl-1H-pyrazol-4-yl)-3-(6-(piperazin-1-yl)pyrazin-2-yl)-1H-pyrazolo[3,4-c]pyridine] | 0.064
CCn1cc(-c2cc3c(-c4cccc(N5CCN(C6COC6)CC5)n4)n[nH]c3cn2)cn1 [Example 480, 5-(1-ethyl-1H-pyrazol-4-yl)-3-(6-(4-(oxetan-3-yl)piperazin-1-yl)pyridin-2-yl)-1H-pyrazolo[3,4-c]pyridine] | 0.311

Molecules with a lower Ki, results first:

Ki [nM] | Compound
0.03 | Cn1cc(-c2cc3c(-c4ccc(Br)c(N5C[C@@H](N)C[C@@H](F)C5)n4)n[nH]c3cn2)cn1 [Example 456, (3S,5R)-1-(3-bromo-6-(5-(1-methyl-1H-pyrazol-4-yl)-1H-pyrazolo[3,4-c]pyridin-3-yl)pyridin-2-yl)-5-fluoropiperidin-3-amine]
0.029 | Cc1ccc(-c2n[nH]c3cnc(-c4cnn(C)c4)cc23)nc1N1CCN(C)CC1 [Example 440, 5-(1-methyl-1H-pyrazol-4-yl)-3-(5-methyl-6-(4-methylpiperazin-1-yl)pyridin-2-yl)-1H-pyrazolo[3,4-c]pyridine]
0.029 | CCn1cc(-c2cc3c(-c4cccc(N5CCNC(C)(C)C5)n4)n[nH]c3cn2)cn1 [Example 446, 3-(6-(3,3-dimethylpiperazin-1-yl)pyridin-2-yl)-5-(1-ethyl-1H-pyrazol-4-yl)-1H-pyrazolo[3,4-c]pyridine]
0.029 | CCn1cc(-c2cc3c(-c4cccc(N5CCNCC(F)(F)C5)n4)n[nH]c3cn2)cn1 [Example 447, 3-(6-(6,6-difluoro-1,4-diazepan-1-yl)pyridin-2-yl)-5-(1-ethyl-1H-pyrazol-4-yl)-1H-pyrazolo[3,4-c]pyridine]
0.028 | CCn1cc(-c2cc3c(-c4ccc(Br)c(N5C[C@H](N)C[C@@H](F)C5)n4)n[nH]c3cn2)cn1 [Example 455, (3R,5R)-1-(3-bromo-6-(5-(1-ethyl-1H-pyrazoI-4-yl)-1H-pyrazolo[3,4-c]pyridin-3-yl)pyridin-2-yl)-5-fluoropiperidin-3-amine]
0.026 | CCn1cc(-c2cc3c(-c4ccc(Br)c(N5C[C@@H](N)C[C@@H](F)C5)n4)n[nH]c3cn2)cn1 [Example 454, (3S,5R)-1-(3-bromo-6-(5-(1-ethyl-1H-pyrazol-4-yl)-1H-pyrazolo[3,4-c]pyridin-3-yl)pyridin-2-yl)-5-fluoropiperidin-3-amine]
0.022 | N#CCn1cc(-c2cc3c(-c4cccc(N5CCNCC5)n4)n[nH]c3cn2)cn1 [Example 473, 2-(4-(3-(6-(piperazin-1-yl)pyridin-2-yl)-1H-pyrazolo[3,4-c]pyridin-5-yl)-1H-pyrazol-1-yl)acetonitrile]
0.021 | COc1cncc(-c2cc3c(-c4cccc(N5CCNCC5)n4)n[nH]c3cn2)c1 [Example 436, 5-(5-methoxypyridin-3-yl)-3-(6-(piperazin-1-yl)pyridin-2-yl)-1H-pyrazolo[3,4-c]pyridine]
0.02 | CCn1cc(-c2cc3c(-c4ccc(C(C)C)c(N5CCC[C@H](N)C5)n4)n[nH]c3cn2)cn1 [Example 478, (S)-1-(6-(5-(1-ethyl-1H-pyrazol-4-yl)-1H-pyrazolo[3,4-c]pyridin-3-yl)-3-isopropylpyridin-2-yl)piperidin-3-amine]
0.013 | CCc1ccc(-c2n[nH]c3cnc(-c4cnn(CC)c4)cc23)nc1N1CCC[C@H](N)C1 [Example 477, (S)-1-(3-ethyl-6-(5-(1-ethyl-1H-pyrazol-4-yl)-1H-pyrazolo[3,4-c]pyridin-3-yl)pyridin-2-yl)piperidin-3-amine]
0.004 | CCc1cncc(-c2cc3c(-c4cccc(N5CCNCC5)n4)n[nH]c3cn2)c1 [Example 438, 5-(5-ethylpyridin-3-yl)-3-(6-(piperazin-1-yl)pyridin-2-yl)-1H-pyrazolo[3,4-c]pyridine]
